Patent publication US4263430A, “2-Methyl-5-(2-hydroxystyryl)-1,3,4-thiadiazole” (BASF Aktiengesellschaft, priority 1978, dated 1981)

Experiments:
[1] = molecular target: T1, cardiac beta-1-receptors (Felis catus, UniProt Q9TST6); experiment: Beta-sympatholytic action: inhibition of isoproterenol-induced tachycardia in narcotized cats; assay type: in vivo; details: for ED50: cat, iv, read-out: Beta-sympatholytic action ED50%: dose which inhibits the isoproterenol-induced tachycardia by 50%; for R.A. (relative activity) / factor by which doses blocking the cardiac beta-1-receptors are smaller than those of propranolol: cats; for R.A. (relative activity): Propranolol = 1.00; for factor by which doses blocking the cardiac beta-1-receptors are smaller than those of propranolol: versus propranolol
T1 construct: increases the pulse rate of narcotized cats (weighing 2-4 kg) by an average of 40%; from tissue; host or cells: heart of living narcotized cats (in vivo, endogenous receptor)
T1 sequence (Q9TST6 whole entry): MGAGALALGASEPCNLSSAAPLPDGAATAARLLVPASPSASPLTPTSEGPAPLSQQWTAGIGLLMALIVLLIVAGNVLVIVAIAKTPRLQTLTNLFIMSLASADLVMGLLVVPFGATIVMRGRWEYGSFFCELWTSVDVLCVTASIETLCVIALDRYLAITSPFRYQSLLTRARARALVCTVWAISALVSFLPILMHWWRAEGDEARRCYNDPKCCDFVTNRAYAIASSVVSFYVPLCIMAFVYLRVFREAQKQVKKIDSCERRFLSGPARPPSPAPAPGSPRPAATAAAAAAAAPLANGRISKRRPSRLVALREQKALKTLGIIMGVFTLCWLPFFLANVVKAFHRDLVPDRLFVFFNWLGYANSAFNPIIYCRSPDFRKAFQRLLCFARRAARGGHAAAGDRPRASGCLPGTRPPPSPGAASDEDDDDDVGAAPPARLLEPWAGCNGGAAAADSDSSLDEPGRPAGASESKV
Description: The beta-sympatholytic action of the compounds was tested on cats. […] The following test methods were used:
Beta-sympatholytic agents inhibit the tachycardia.
^1 Inhibition of isoproterenolinduced tachycardia in cats under
hexobarbital narcosis. Compound administered intravenously.

[2] = in vivo; details: mouse, read-out: Acute toxicity LD50
[3] = test system: cardiac beta-1-receptors; details: mouse, in vivo

Cc1nnc(/C=C/c2ccccc2OCC(O)CNC(C)C)s1 (stereo not shown) [Compound 3, 2-Methyl-5-[2-(2-hydroxy-3-isopropylamino-propoxy)-styryl]-1,3,4-thiadiazol]
ED50 [1]: 0.01 mg/kg
R.A. (relative activity) [1]: 14.10
LD50 [2]: 83 mg/kg
Therapeutic range relative [3]: 10.84

Cc1nnc(/C=C/c2ccccc2OCC(O)CNC2CC2)s1 (stereo not shown) [Compound 4, 2-Methyl-5-[2-(2-hydroxy-3-cyclopropylamino-propoxy)-styryl]-1,3,4-thiadiazole]
ED50 [1]: 0.012 mg/kg
R.A. (relative activity) [1]: 11.75
factor by which doses blocking the cardiac beta-1-receptors are smaller than those of propranolol [1]: 12
LD50 [2]: 69.4 mg/kg
Therapeutic range relative [3]: 7.55

C#CC(C)NCC(O)COc1ccccc1/C=C/c1nnc(C)s1 (stereo not shown) [Compound 6, 2-Methyl-5-[2-(2-hydroxy-3-(1-butyn-3-ylamino)-propoxy)styryl]-1,3,4-thiadiazole]
ED50 [1]: 0.0111 mg/kg
R.A. (relative activity) [1]: 12.70
LD50 [2]: 261 mg/kg
Therapeutic range relative [3]: 30.68

Cc1nnc(/C=C/c2ccccc2OCC(O)CNC(C)(C)C)s1 (stereo not shown) [Compound 5, 2-Methyl-5-[2-(2-hydroxy-3-tert.-butylamino-propoxy)-styryl]-1,3,4-thiadiazole]
R.A. (relative activity) [1]: 25.22
factor by which doses blocking the cardiac beta-1-receptors are smaller than those of propranolol [1]: 25
Therapeutic range relative [3]: 13.73
